Laboratory results as given in patent publication US20220009906A1, “ISOINDOLIN-1-ONE DERIVATIVES USEFUL AS GRK2 INHIBITORS” (priority 2020, published 2022).

target: T1, GRK2 (Homo sapiens, UniProt P25098); test: hGRK2 LANCE Ultra In Vitro Assay; assay type: biochemical; conditions: not given
T1 sequence (P25098 1-689): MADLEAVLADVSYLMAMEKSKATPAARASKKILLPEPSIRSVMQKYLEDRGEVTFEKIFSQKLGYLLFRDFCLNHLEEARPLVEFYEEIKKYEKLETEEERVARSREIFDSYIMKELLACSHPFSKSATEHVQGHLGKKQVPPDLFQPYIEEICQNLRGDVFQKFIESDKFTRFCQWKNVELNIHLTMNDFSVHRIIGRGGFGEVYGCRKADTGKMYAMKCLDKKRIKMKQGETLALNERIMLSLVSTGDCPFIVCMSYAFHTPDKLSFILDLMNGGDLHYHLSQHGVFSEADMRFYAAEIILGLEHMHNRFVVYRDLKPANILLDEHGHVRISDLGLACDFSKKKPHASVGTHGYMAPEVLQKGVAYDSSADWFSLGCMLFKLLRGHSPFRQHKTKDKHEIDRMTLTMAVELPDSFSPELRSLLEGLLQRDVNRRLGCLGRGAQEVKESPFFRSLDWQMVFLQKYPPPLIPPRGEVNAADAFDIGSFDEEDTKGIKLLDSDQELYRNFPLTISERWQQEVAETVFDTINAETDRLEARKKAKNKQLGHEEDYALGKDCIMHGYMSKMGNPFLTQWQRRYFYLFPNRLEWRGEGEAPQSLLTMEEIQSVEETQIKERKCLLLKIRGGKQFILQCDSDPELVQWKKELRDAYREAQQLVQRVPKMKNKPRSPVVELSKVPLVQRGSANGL
Procedure: hGRK2 LANCE Ultra In Vitro Assay
G-protein coupled receptor kinases (GR Kinases) desensitize activated G-protein coupled receptors (GPCRs), by phosphorylation of cytoplasmic loops or carboxyl-terminal tails of GPCRs. GRK2 is one of the 6 different GR kinases and is implicated in heart failure and diabetes.
This assay is sensitive and requires as low as 10 nM enzyme, in a total volume of 10 μL. In addition, the ATP concentration can be varied over a broad range, without interfering with the assay or changing the assay condition. […] Testing inhibitors routinely at both high and low ATP concentrations also enables identification of potential non-ATP competitive inhibitors.
Paroxetine was used as the reference compound in this assay.
Test compounds were dissolved in DMSO at 1 mM and were 3-fold serial diluted. The compound DMSO solutions were then added (100 nL) into a plate well using an acoustic dispenser. To each well was then added 20 nM GRK2 (5 μL) in assay buffer (20 mM HEPES, pH 7.5, 10 mM MgCl2, 0.001% Tween-20®). The plate was sealed and centrifuged at 1000 rpm for 1 min. The plate and wells containing a mixture of GRK2 and test compound were incubated at ambient temperature for 30 min (prior to initializing the enzymatic reaction).
Enzyme reactions were initiated by the addition of 4.9 μL Substrates/Eu-Ab mix to each well. […] Final concentrations of reagents in the assays were as follows: 20 mM HEPES, pH 7.5; 10 mM MgCl2; 0.001% Tween-20® (w/v); 30 or 600 μM ATP; 200 nM ULight-peptide; 4 nM Eu-Ab; 10 nM GRK2; and 1% DMSO.
The plates were sealed and centrifuged at 1000 rpm for 1 min. For reactions at low ATP concentration (30 μM), reaction mixtures were incubated at ambient temperature for 120 min. For reactions at high ATP concentration (600 μM), reaction mixtures were incubated at ambient temperature for 60 min.
The enzyme reactions were quenched by addition of 10 μL of 12 mM EDTA in 1× LANCE detection solution to each well. The plates were then incubated at ambient temperature for 30 min. Time-resolved fluorescence signal of reactions were read on an EnVision or PHERAstar plate reader with the following parameters: Excitation wavelength=337 nm; emission wavelength (donor)=620 nm; emission wavelength (acceptor)=665 nm.
The raw HTRF data were converted to % active as follows:
% active=(sample−NC)/(PC−NC)*100
where NC is the mean of negative control (reactions without GRK2), and PC is the mean of positive control (reactions with GRK2 but without inhibitor). IC50 values were determined from a 4-parameter fit, using the following equation:
Y=Bottom+(Top−Bottom)/(1+10^((Log IC50−X)*Hill slope))
where X=log10 of the compound concentration.

| Compound | IC50 |
| --- | --- |
| COc1cccc(CN2C(=O)c3cc(-c4cn[nH]c4)ccc3C23CCCC3C(=O)O)c1 (stereo not drawn) [Compound 110, 2′-(3-methoxybenzyl)-3′-oxo-5′-(1H-pyrazol-4-yl)spiro[cyclopentane-1,1′-isoindoline]-2-carboxylic acid] | 0.307 µM |

same assay, conditions: Biological Example 1 GRK2 Lancer IC50 (μM), 10 nM GRK2; 30 or 600 μM ATP (not stated which); multiple measurements listed individually

| Compound | IC50 |
| --- | --- |
| COc1cccc(CN2C(=O)c3cc(-c4cn[nH]c4)ccc3C23CCC(C(N)=O)C3)c1 (stereo not drawn) [Compound 108, 2′-(3-methoxybenzyl)-3′-oxo-5′-(1H-pyrazol-4-yl)spiro[cyclopentane-1,1′-isoindoline]-3-carboxamide] | 0.004 µM |
| COC(=O)NC1CCC2(C1)c1ccc(-c3cn[nH]c3)cc1C(=O)N2Cc1cccc(OC)c1 (stereo not drawn) [Compound 109, methyl (2′-(3-methoxybenzyl)-3′-oxo-5′-(1H-pyrazol-4-yl)spiro[cyclopentane-1,1′-isoindolin]-3-yl)carbamate] | 0.006 µM |
| COc1cccc(CN2C(=O)c3cc(-c4cn[nH]c4)ccc3C23CCCC3C(N)=O)c1 (stereo not drawn) [Compound 111, 2′-(3-methoxybenzyl)-3′-oxo-5′-(1H-pyrazol-4-yl)spiro[cyclopentane-1,1′-isoindoline]-2-carboxamide] | 0.007 µM |
| CCOc1cccc([C@H](CO)N2Cc3ccc(-c4cn[nH]c4)cc3C2=O)c1 [Compound 112] | 0.306 µM |
| CCOc1cccc([C@@H](CO)N2Cc3ccc(-c4cn[nH]c4)cc3C2=O)c1 [Compound 114] | 0.006 µM |
| COC(=O)NC1CCCC12c1ccc(-c3cn[nH]c3)cc1C(=O)N2Cc1cccc(OC)c1 (stereo not drawn) [Compound 115, Methyl (2′-(3-methoxybenzyl)-3′-oxo-5′-(1H-pyrazol-4-yl)spiro[cyclopentane-1,1′-isoindolin]-2-yl)carbamate] | 0.177 µM |
| COc1cccc(C(CCC(=O)O)N2Cc3ccc(-c4cn[nH]c4)cc3C2=O)c1 (stereo not drawn) [Compound 117, 4-(3-methoxyphenyl)-4-(1-oxo-6-(1H-pyrazol-4-yl)isoindolin-2-yl)butanoic acid] | 0.404 µM |
| CNC1CCC2(C1)c1ccc(-c3cn[nH]c3)cc1C(=O)N2Cc1cccc(OC)c1 (stereo not drawn) [Compound 118, 2′-(3-methoxybenzyl)-3-(methylamino)-5′-(1H-pyrazol-4-yl)spiro[cyclopentane-1,1′-isoindolin]-3′-one] | < 0.005 µM |
| O=C1c2cc(-c3cn[nH]c3)ccc2CN1Cc1cccc(-n2cccn2)c1 [Compound 119] | 0.113 µM |
| COc1cccc([C@@H](C)N2Cc3c(cc(-c4cn[nH]c4)cc3-c3cncc(F)c3)C2=O)c1 [Compound 120, (R)-4-(5-fluoropyridin-3-yl)-2-(1-(3-methoxyphenyl)ethyl)-6-(1H-pyrazol-4-yl)isoindolin-1-one] | 0.009 µM |
| COc1cccc([C@@H](C)N2Cc3c(cc(-c4cn[nH]c4)cc3-c3ccncc3)C2=O)c1 [Compound 121, (R)-2-(1-(3-methoxyphenyl)ethyl)-6-(1H-pyrazol-4-yl)-4-(pyridin-4-yl)isoindolin-1-one] | 0.01 µM |
| COc1cccc([C@@H](C)N2C(=O)c3cc(-c4cn[nH]c4)ccc3C23CCCC3)c1 [Compound 122, (R)-2′-(1-(3-methoxyphenyl)ethyl)-5′-(1H-pyrazol-4-yl)spiro[cyclopentane-1,1′-isoindolin]-3′-one] | 1.18 µM |
| COc1cccc(CN2C(=O)c3cc(-c4cn[nH]c4)ccc3C23CCCC3N)c1 (stereo not drawn) [Compound 123, 2-amino-2′-(3-methoxybenzyl)-5′-(1H-pyrazol-4-yl)spiro[cyclopentane-1,1′-isoindolin]-3′-one] | 0.015 µM |
| COc1cccc([C@@H](C)N2Cc3c(cc(-c4cn[nH]c4)cc3-c3cccnc3)C2=O)c1 [Compound 124, (R)-2-(1-(3-methoxyphenyl)ethyl)-6-(1H-pyrazol-4-yl)-4-(pyridin-3-yl)isoindolin-1-one] | 0.005 µM |
| COc1cccc([C@@H](C)N2Cc3c(cc(-c4cn[nH]c4)cc3-c3cccnc3N)C2=O)c1 [Compound 125, (R)-4-(2-aminopyridin-3-yl)-2-(1-(3-methoxyphenyl)ethyl)-6-(1H-pyrazol-4-yl)isoindolin-1-one] | 0.022 µM |
| COc1cncc(-c2cc(-c3cn[nH]c3)cc3c2CN([C@H](C)c2cccc(OC)c2)C3=O)c1 [Compound 126, (R)-2-(1-(3-methoxyphenyl)ethyl)-4-(5-methoxypyridin-3-yl)-6-(1H-pyrazol-4-yl)isoindolin-1-one] | 0.024 µM |
| COc1cccc([C@@H](C)N2Cc3c(cc(-c4cn[nH]c4)cc3-c3ccc(OC)nc3)C2=O)c1 [Compound 127, (R)-2-(1-(3-methoxyphenyl)ethyl)-4-(6-methoxypyridin-3-yl)-6-(1H-pyrazol-4-yl)isoindolin-1-one] | 0.047 µM |
| O=C(N[C@H]1C[C@H]2CC[C@@H]1C2)c1cccc(CN2Cc3ccc(-c4cn[nH]c4)cc3C2=O)c1 [Compound 128] | < 0.005 µM |
| COc1cccc([C@@H](C)N2Cc3c(cc(-c4cn[nH]c4)cc3-c3ccc(O)cc3)C2=O)c1 [Compound 129, (R)-4-(4-hydroxyphenyl)-2-(1-(3-methoxyphenyl)ethyl)-6-(1H-pyrazol-4-yl)isoindolin-1-one] | 0.011 µM |
| COc1cccc([C@@H](C)N2Cc3c(cc(-c4cn[nH]c4)cc3-c3cncnc3)C2=O)c1 [Compound 130, 2-[(1R)-1-(3-methoxyphenyl)ethyl]-6-(1H-pyrazol-4-yl)-4-pyrimidin-5-yl-isoindolin-1-one] | < 0.005 µM |
| COc1cccc([C@@H](C)N2Cc3c(cc(-c4cn[nH]c4)cc3-c3cc(C)nc(C)c3)C2=O)c1 [Compound 132, (R)-4-(2,6-dimethylpyridin-4-yl)-2-(1-(3-methoxyphenyl)ethyl)-6-(1H-pyrazol-4-yl)isoindolin-1-one] | 0.005 µM |
| COc1cccc(C(CO)N2Cc3c(cc(-c4cn[nH]c4)cc3-c3ccncc3)C2=O)c1 (stereo not drawn) [Compound 133, 2-(2-Hydroxy-1-(3-methoxyphenyl)ethyl)-6-(1H-pyrazol-4-yl)-4-(pyridin-4-yl)isoindolin-1-one] | 0.021 µM |
| Cc1cnccc1CNC(=O)c1cccc(CN2C(=O)c3cc(-c4cn[nH]c4)ccc3C23CCCC3)c1 [Compound 134, N-((3-methylpyridin-4-yl)methyl)-3-((3′-oxo-5′-(1H-pyrazol-4-yl)spiro[cyclopentane-1,1′-isoindolin]-2′-yl)methyl)benzamide] | 0.003 µM |
| O=C1c2cc(-c3cn[nH]c3)ccc2CN1Cc1cccc(O)c1 [Compound 135] | 0.005 µM |
| CC(=O)Oc1cccc(CN2Cc3ccc(-c4cn[nH]c4)cc3C2=O)c1 [Compound 136] | 0.014 µM |
| O=C(Oc1cccc(CN2Cc3ccc(-c4cn[nH]c4)cc3C2=O)c1)C1CC1 [Compound 137] | 0.034 µM |
| CC(=O)OCC(=O)Oc1cccc(CN2Cc3ccc(-c4cn[nH]c4)cc3C2=O)c1 [Compound 138] | 0.002 µM |
| COc1cccc([C@@H](C)N2Cc3c(cc(-c4cn[nH]c4)cc3-c3cccc(O)c3)C2=O)c1 [Compound 139, (R)-4-(3-hydroxyphenyl)-2-(1-(3-methoxyphenyl)ethyl)-6-(1H-pyrazol-4-yl)isoindolin-1-one] | 0.033 µM |
| COc1cccc(-c2cc(-c3cn[nH]c3)cc3c2CN([C@H](C)c2cccc(OC)c2)C3=O)c1 [Compound 140, (R)-4-(3-methoxyphenyl)-2-(1-(3-methoxyphenyl)ethyl)-6-(1H-pyrazol-4-yl)isoindolin-1-one] | 0.265 µM |
